# Assay results reported in PMC3873810, “Structure–Activity Relationship of Adenosine 5′-diphosphoribose at the Transient Receptor Potential Melastatin 2 (TRPM2) Channel: Rational Design of Antagonists” (Journal of Medicinal Chemistry, 2013).
# Entries after “also recorded” stand apart in the source; their conditions may differ. Like-named read-outs stand apart in the source and are kept apart here.
# Legend:
# TRPM2 channel = settings: read-out: TRPM2 inhibition IC50; cited from earlier work
# murine neutrophils = system: murine neutrophils; parameters: method as in PMID 18025229; settings: cited from earlier work
# human TRPM2 = biological target: T1, human TRPM2 (Homo sapiens, UniProt O94759); assay: Whole-cell patch clamp, antagonism of TRPM2 activation by 100 μM ADPR in HEK293 clone TRPM2#24; assay type: cell-based; settings: for Antagonist activity at TRPM2, in words: analogue concentration not printed in the sentence (most analogues tested at 900 μM); for Mean outward current of 100 μM ADPR (1) infusion: mean ± SEM
# T1 construct: Specific bands of full length TRPM2 (black arrow) and degradation products (gray arrows) are marked; expressed in transfected cells
# TRPM2 = system: TRPM2; parameters: method as in PMID 20650899; settings: even at 60-fold excess of 88 over 1; cited from earlier work
# human neutrophils = assay: Chemotaxis (migration) of primary human neutrophils in fMLP gradient, μ-Slide Chemotaxis; assay type: cell-based; settings: 50 nM fMLP gradient; fMLP alone, or with 1.5 mM EGTA, or with 100 μM 8-Ph-ADPR (5); 1 h tracking
# [1] = analogue 900 μM with 100 μM ADPR in pipet solution
# [2] = footnote d: could only be tested at 100 μM due to solubility difficulties, 100 μM ADPR, 0.1% DMSO, read-out: Antagonism at TRPM2 (IC50), result as symbol
# [3] = analogue tested at 900 μM against 100 μM ADPR, footnote c: antagonistic effect observed but not statistically significant, read-out: Antagonism at TRPM2 (IC50), result as symbol
# [4] = against 100 μM ADPR (1) in pipet solution, outward current at +15 mV, HEK293 clone TRPM2#24, read-out: Antagonism at TRPM2 (IC50)
# [5] = analogue 100 μM, equimolar to 100 μM ADPR in pipet solution
# T1 sequence (O94759 whole entry, the tested form may be a part): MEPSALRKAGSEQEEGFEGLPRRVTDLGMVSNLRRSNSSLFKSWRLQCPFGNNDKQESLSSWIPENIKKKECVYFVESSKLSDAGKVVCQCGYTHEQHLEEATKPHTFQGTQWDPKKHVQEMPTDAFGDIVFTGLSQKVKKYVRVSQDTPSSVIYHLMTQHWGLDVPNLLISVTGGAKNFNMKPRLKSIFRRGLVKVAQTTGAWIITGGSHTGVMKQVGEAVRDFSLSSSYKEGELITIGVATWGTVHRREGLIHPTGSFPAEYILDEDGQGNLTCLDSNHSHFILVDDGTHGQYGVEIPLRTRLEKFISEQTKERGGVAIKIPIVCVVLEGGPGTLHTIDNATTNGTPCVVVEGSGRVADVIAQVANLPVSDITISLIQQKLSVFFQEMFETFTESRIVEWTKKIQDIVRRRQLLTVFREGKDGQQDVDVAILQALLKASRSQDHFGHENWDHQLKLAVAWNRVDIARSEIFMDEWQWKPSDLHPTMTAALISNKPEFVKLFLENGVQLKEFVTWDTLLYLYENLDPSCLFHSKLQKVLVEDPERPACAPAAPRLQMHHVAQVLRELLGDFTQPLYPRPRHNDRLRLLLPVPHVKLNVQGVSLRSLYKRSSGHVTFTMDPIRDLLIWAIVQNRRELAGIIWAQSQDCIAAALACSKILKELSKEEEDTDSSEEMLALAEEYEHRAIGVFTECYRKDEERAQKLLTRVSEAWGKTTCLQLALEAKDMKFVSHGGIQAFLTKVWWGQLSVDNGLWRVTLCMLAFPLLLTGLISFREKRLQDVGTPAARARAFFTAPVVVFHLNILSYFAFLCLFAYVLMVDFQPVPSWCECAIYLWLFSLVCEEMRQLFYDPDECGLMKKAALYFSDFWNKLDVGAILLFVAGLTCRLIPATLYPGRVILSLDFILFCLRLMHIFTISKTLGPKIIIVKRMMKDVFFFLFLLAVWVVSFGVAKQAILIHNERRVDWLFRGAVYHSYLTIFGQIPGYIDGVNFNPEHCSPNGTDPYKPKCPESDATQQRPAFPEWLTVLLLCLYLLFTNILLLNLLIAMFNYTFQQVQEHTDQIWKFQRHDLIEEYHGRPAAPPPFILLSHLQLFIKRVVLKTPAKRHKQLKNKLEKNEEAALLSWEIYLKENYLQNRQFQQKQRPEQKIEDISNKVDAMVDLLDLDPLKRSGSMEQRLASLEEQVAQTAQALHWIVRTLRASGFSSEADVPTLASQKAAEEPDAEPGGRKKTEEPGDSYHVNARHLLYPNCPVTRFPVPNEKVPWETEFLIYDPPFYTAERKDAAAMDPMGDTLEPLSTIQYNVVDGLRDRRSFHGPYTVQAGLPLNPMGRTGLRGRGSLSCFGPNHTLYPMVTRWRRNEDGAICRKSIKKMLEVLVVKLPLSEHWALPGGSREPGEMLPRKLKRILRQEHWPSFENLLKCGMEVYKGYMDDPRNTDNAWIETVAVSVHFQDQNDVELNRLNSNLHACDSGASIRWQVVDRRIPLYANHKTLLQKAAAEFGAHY
compound,measurement,setting,value
copper ions,IC50,TRPM2 channel,2.6 µM
"Nc1ncnc2c1nc(Br)n2[C@@H]1O[C@H](COP(=O)(O)OP(=O)(O)OC[C@H]2OC(O)[C@H](O)[C@@H]2O)[C@@H](O)[C@H]1O (stereo partly shown) [compound 4, 8-Br-ADPR, reference compound]","Sensitivity of Ca2+ signalling and chemotaxis of murine neutrophils, in words",murine neutrophils,very sensitive
same,"Effect on activation of TRPM2 by ADPR (1), in words",human TRPM2; [1],significantly inhibited TRPM2 activation
"Nc1ncnc2c1ncn2[C@@H]1O[C@H](COP(=O)(O)O)[C@@H](O)[C@H]1O [compound 88, adenosine 5′-monophosphate, reference compound]","Antagonist activity at TRPM2, in words",human TRPM2; 100 μM ADPR,no antagonist activity; also recorded: ineffective
same,"Inhibition of ADPR-mediated currents, in words",TRPM2,not shown any inhibition
"CCCCCCNc1c(NC[C@H]2O[C@@H](n3cnc4c(N)ncnc43)[C@H](O)[C@@H]2O)c(=O)c1=O [compound 67, 3-(5′-Amino-5′-deoxyadenosine)-4-(hexylamino)cyclobut-3-ene-1,2-dione]",IC50,human TRPM2; [2],> 900 µM
"Nc1ncnc2c1nc(Cl)n2[C@@H]1O[C@H](COP(=O)(O)O)[C@@H](O)[C@H]1O [compound 87, 8-Cl-AMP, reference compound]","Effect on activation of TRPM2 by ADPR (1), in words",human TRPM2; [1],no antagonist effect
same,IC50,human TRPM2; [3],> 900 µM
"Nc1ncnc2c1ncn2[C@@H]1O[C@H](COP(=O)(O)OP(=O)(O)OP(=O)(O)OC[C@H]2OC(O)[C@H](O)[C@@H]2O)[C@@H](O)[C@H]1O (stereo partly shown) [compound 47, Adenosine Triphosphoribose]","Effect on activation of TRPM2 by ADPR (1), in words",human TRPM2; [1],some antagonist effect
same,IC50,human TRPM2; [3],> 900 µM
"Nc1ncnc2c1nc(-c1ccc(CC(N)C(=O)O)cc1)n2[C@@H]1O[C@H](COP(=O)(O)O)[C@@H](O)[C@H]1O (stereo partly shown) [compound 9, 8-(4-(2-Aminopropanoic acid)phenyl)adenosine-5′-monophosphate]",IC50,human TRPM2; [4],100 to 900 µM
same,"Effect on activation of TRPM2 by ADPR (1), in words",human TRPM2; [5],antagonist effect was lost
same,"Effect on activation of TRPM2 by ADPR (1), in words",human TRPM2; [1],suppressed activation of TRPM2
"Nc1ncnc2c1ncn2[C@@H]1O[C@H](COP(=O)(O)OP(=O)(O)OC2CCCC2)[C@@H](O)[C@H]1O [compound 80, β-Cyclopentyl-ADP]","Effect on activation of TRPM2 by ADPR (1), in words",human TRPM2; [1],partial inhibition
"Nc1ncnc2c1nc(-c1ccccc1)n2[C@@H]1O[C@H](Cn2cc(COC[C@H]3OC(O)[C@H](O)[C@@H]3O)nn2)[C@@H](O)[C@H]1O (stereo partly shown) [compound 73, 1-(5′-Deoxy-8-phenyladenosine)-4-(2″,3″-O-isopropylidene-5″-O-methylribosyl)-1,2,3-triazole]","Effect on activation of TRPM2 by ADPR (1), in words",human TRPM2; [5],none of these compounds showed antagonist activity
same,IC50,human TRPM2; [2],> 900 µM
Nc1ncnc2c1nc(-c1ccccc1)n2[C@@H]1O[C@H](COP(=O)(O)OP(=O)(O)OC2CCCC2)[C@@H](O)[C@H]1O [compound 84],"Effect on activation of TRPM2 by ADPR (1), in words",human TRPM2; [5],significant antagonist activity
"O=c1[nH]cnc2c1ncn2[C@@H]1O[C@H](COP(=O)(O)OP(=O)(O)OC[C@H]2OC(O)[C@H](O)[C@@H]2O)[C@@H](O)[C@H]1O (stereo partly shown) [compound 13, Inosine-5′-diphosphoribose]","Antagonist activity at TRPM2, in words",human TRPM2; 100 μM ADPR,did not antagonize activation of TRPM2
same,IC50,human TRPM2; [3],> 900 µM
"Nc1ncnc2c1ncn2[C@@H]1O[C@H](COP(=O)(O)OP(=O)(O)O)[C@@H](O)[C@H]1O [compound 44, adenosine 5′-diphosphate, reference compound]","Antagonist activity at TRPM2, in words",human TRPM2; 100 μM ADPR,inactive
"Nc1ncnc2c1nc(-c1ccccc1)n2[C@H]1C[C@H](O)[C@@H](COP(=O)(O)OP(=O)(O)OC[C@H]2OC(O)[C@H](O)[C@@H]2O)O1 (stereo partly shown) [compound 86, 8-Phenyl-2′-deoxyadenosine-5′-diphosphoribose]","Effect on activation of TRPM2 by ADPR (1), in words",human TRPM2; [1],completely inhibited activation of TRPM2
"O=C(O)CN(CCOCCOCCN(CC(=O)O)CC(=O)O)CC(=O)O [EGTA, reference compound]",Center of mass ∥ (mean movement in the y direction along fMLP gradient),human neutrophils,32.6 μm
"Nc1ncnc2c1ncn2[C@@H]1O[C@H](CNc2c(NC3CCCC3)c(=O)c2=O)[C@@H](O)[C@H]1O [compound 65, 3-(5′-Amino-5′-deoxyadenosine)-4-(cyclopentylamino)-cyclobut-3-ene-1,2-dione]",IC50,human TRPM2; [2],> 900 µM
"Nc1ncnc2c1ncn2[C@H]1C[C@H](O)[C@@H](COP(=O)(O)O)O1 [compound 31, 2′-deoxy-AMP, reference compound]","Antagonist activity at TRPM2, in words",human TRPM2; 100 μM ADPR,weak antagonist
same,IC50,human TRPM2; [4],100 to 900 µM
same,"Effect on activation of TRPM2 by ADPR (1), in words",human TRPM2; [5],antagonist effect was lost
same,"Effect on activation of TRPM2 by ADPR (1), in words",human TRPM2; [1],suppressed activation of TRPM2
"Nc1ncnc2c1ncn2[C@@H]1O[C@H](COP(=O)(O)OP(=O)(O)OC[C@H]2OC(O)[C@H](O)[C@@H]2O)[C@@H](O)[C@H]1O (stereo partly shown) [compound 1, Adenosine 5′-diphosphoribose]",Mean outward current of 100 μM ADPR (1) infusion,"human TRPM2; control of the set of experiments for 4, n = 16",1.13 ± 0.14 nA
same,Mean outward current of 100 μM ADPR (1) infusion,"human TRPM2; control of the set of experiments for 5, n = 16",1.17 ± 0.13 nA
same,Mean outward current of 100 μM ADPR (1) infusion,"human TRPM2; control of the set of experiments for 6, n = 20",1.70 ± 0.25 nA
same,Mean outward current of 100 μM ADPR (1) infusion,"human TRPM2; control of the set of experiments for 7, n = 22",1.25 ± 0.14 nA
same,Mean outward current of 100 μM ADPR (1) infusion,"human TRPM2; control of the set of experiments for 84, n = 8",1.44 ± 0.20 nA
same,Mean outward current of 100 μM ADPR (1) infusion,"human TRPM2; control of the set of experiments for 86, n = 15",1.23 ± 0.22 nA
"Nc1ncnc2c1ncn2CCCCOP(=O)(O)OP(=O)(O)OC[C@H]1OC(O)[C@H](O)[C@@H]1O (stereo partly shown) [compound 30, 9-(4-Hydroxybutyl)adenine-5′-diphosphoribose]",Antagonism at TRPM2 (IC50),"human TRPM2; against 100 μM ADPR (1) in pipet solution, outward current at +15 mV, HEK293 clone TRPM2#24",upper micromolar range
same,"Effect on activation of TRPM2 by ADPR (1), in words",human TRPM2; [5],no inhibition
same,"Effect on activation of TRPM2 by ADPR (1), in words",human TRPM2; [1],nearly complete inhibition
"Nc1ncnc2c1ncn2[C@@H]1O[C@H](COS(=O)(=O)NC(=O)c2ccccc2O)[C@@H](O)[C@H]1O [compound 76, salicyl-adenosine monosulfamide]","Effect on activation of TRPM2 by ADPR (1), in words",human TRPM2; [1],noticeable antagonist activity
"Nc1nc(F)nc2c1ncn2[C@@H]1O[C@H](COP(=O)(O)OP(=O)(O)OC[C@H]2OC(O)[C@H](O)[C@@H]2O)[C@@H](O)[C@H]1O (stereo partly shown) [compound 16, 2-F-ADPR]","Antagonist activity at TRPM2, in words",human TRPM2; 100 μM ADPR,did not antagonize activation of TRPM2
same,IC50,human TRPM2; [3],> 900 µM
"O=c1[nH]cnc2c1ccn2[C@@H]1O[C@H](COP(=O)(O)OP(=O)(O)OC[C@H]2OC(O)[C@H](O)[C@@H]2O)[C@@H](O)[C@H]1O (stereo partly shown) [compound 14, 7-Deaza-IDPR]","Antagonist activity at TRPM2, in words",human TRPM2; 100 μM ADPR,without significant effect
same,IC50,human TRPM2; [3],> 900 µM
"Nc1ncnc2c1ncn2[C@@H]1O[C@H](CNc2c(NC[C@H]3O[C@@H](O)[C@H](O)[C@@H]3O)c(=O)c2=O)[C@@H](O)[C@H]1O [compound 64, 3-(5′-Amino-5′-deoxyadenosine)-4-(5″-amino-5″-deoxy-β-D-ribofuranose)cyclobut-3-ene-1,2-dione]",IC50,human TRPM2; [2],> 900 µM
"CCCCNc1c(NC[C@H]2O[C@@H](n3cnc4c(N)ncnc43)[C@H](O)[C@@H]2O)c(=O)c1=O [compound 66, 3-(5′-Amino-5′-deoxyadenosine)-4-butylamino-cyclobut-3-ene-1,2-dione]",IC50,human TRPM2; [2],> 900 µM
